Laboratory results from paper PMC11284088, “Synthesis and biochemical characterization of naphthoquinone derivatives targeting bacterial histidine kinases” (The Journal of Antibiotics, 2024).
Entries after “also recorded” stand apart in the source; their conditions may differ.

Columns and labels:
[1] = target: T1, EnvZ (Escherichia coli, UniProt P0AEJ4); assay: Inhibition of EnvZ autophosphorylation; type: biochemical, Escherichia coli K12; conditions: EnvZ; 1 µM HK, 40 µM ATP, 30 min at 25 °C; read-out: IC50
T1 construct: pETEcEnvZ(223-450); His6 (C); made in house; host or cells: E. coli BL21(DE3)
Experimental: Autophosphorylation of WalK was conducted at 0.5 or 1 µM in a reaction mixture comprising 50 mM Tris-HCl (pH 8.5), 100 mM KCl, 5 mM MgCl2, 100 mM NH4Cl, 5% DMSO, and 40 µM ATP. The total reaction volume was 40 µl, and the incubation lasted for 30 min at 25 °C. To terminate the reaction, 40 µl of 2 × SDS-PAGE sample buffer was added, followed by a 10-min incubation at 37 °C. Subsequently, SDS-PAGE (10% acrylamide) was performed, and the samples were subjected to Western blotting using a PVDF membrane (Bio-Rad 1620177). The primary antibody used was anti-N3-phosphohistidine antibody (clone SC56-2) (EDM Millipore Corp), and the secondary antibody was goat anti-rabbit IgG-HRP (Abcam). A 2% bovine serum albumin (Sigma-Aldrich) solution served as the blocking reagent. Signals originating from phosphorylated HKs were detected using the HRP substrate (Immobilon Western Chemiluminescent HRP substrate, Millipore) and the Multi Imager II Multi Box (Bio Tools). Signal intensities were quantified with Image Analysis Software CS Analyzer 4 (ATTO). IC50 values (50% inhibitory concentrations) were determined using Prism 7 software (GraphPad).
In the assessment of naphthoquinone derivatives, the initial screening for inhibitory activity against WalK autophosphorylation was conducted at 50 or 100 µg ml^−1. Compounds displaying inhibitory activity were further examined to ascertain their IC50 values against WalK. For the chosen compounds, inhibition against EvgS, EnvZ, PhoQ, and CpxA HKs was also assessed. These reactions involved the use of 1 µM HK, 40 µM ATP, and a 30 min incubation at 25 °C.

[2] = target: T2, WalK (207-611, B. subtilis) (Bacillus subtilis, UniProt Q45614); assay: Affinity selection/mass spectrometry, competition with waldiomycin; type: binding; design: key to AS/MS: AS/MS + competitive inhibition of the binding of waldiomycin to WalK; − increased binding of waldiomycin to WalK; conditions: for increase of MS signal of the collected waldiomycin compared to only waldiomycin: compound 30 or 100 µM; for AS/MS: summary class, effect on binding of waldiomycin to WalK
T2 construct: His6 (N); made in house; host or cells: E. coli BL21(DE3)
Experimental: The affinity selection/mass spectrometry (AS/MS) is a method which can detect the binding of small compounds to proteins. This experiment was carried out following a previously established protocol (Fig. 5), with the exception of using Millipore 96-well filter plates (MSBVN1210) instead of MAHAN4510. In the experiment, 1 µM of WalK (207-611, B. subtilis, refer to Table S2) was combined and incubated with 5 µM of waldiomycin and competitor compounds in a reaction buffer. The buffer composition was as follows: 25 mM Tris-HCl (pH 8.0), 50 mM KCl, 50 mM NH4Cl, 5 mM MgCl2, 1 mM DTT, and 0.1% CHAPS. Following the incubation, the mixture was subjected to size-exclusion chromatography via centrifugation to eliminate free compounds. The protein that was eluted was then denatured by adding an equal volume of methanol/0.1% formic acid. The compounds that were subsequently released from the protein were detected using an LC/MS system. The concentrations of waldiomycin were calculated from the value of peak areas using calibration curve that covered the range of 1 nM to 1 µM (R^2 = 0.9991). The concentration of waldiomycin in the eluate of WalK and waldiomycin without competitor was 10.1 nM, and percentages to this value were calculated for other samples.

T1 sequence (P0AEJ4 223-450): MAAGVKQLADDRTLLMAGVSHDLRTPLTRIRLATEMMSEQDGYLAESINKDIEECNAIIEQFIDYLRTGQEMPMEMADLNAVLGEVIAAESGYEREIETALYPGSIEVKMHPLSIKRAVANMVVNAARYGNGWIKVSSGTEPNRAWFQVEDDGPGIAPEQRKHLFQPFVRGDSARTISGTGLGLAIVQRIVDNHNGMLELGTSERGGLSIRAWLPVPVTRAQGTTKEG
T2 sequence (Q45614 207-611): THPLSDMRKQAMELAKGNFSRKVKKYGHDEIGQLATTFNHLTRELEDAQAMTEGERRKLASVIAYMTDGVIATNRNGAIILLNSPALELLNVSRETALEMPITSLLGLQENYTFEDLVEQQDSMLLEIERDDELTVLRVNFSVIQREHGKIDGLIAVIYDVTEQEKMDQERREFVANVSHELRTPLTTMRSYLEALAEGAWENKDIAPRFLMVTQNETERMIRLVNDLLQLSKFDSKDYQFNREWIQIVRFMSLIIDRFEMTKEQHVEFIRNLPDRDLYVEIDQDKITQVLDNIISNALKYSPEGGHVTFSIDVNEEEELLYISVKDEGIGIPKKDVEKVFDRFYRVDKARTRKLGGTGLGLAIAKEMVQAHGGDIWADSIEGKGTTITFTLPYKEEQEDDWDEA

| SMILES | IC50 [1] | increase of MS signal of the collected waldiomycin compared to only waldiomycin ([2]; waldiomycin 5 µM, WalK 1 µM) | binding to WalK competitive with that of waldiomycin ([2]; in words) | AS/MS [2] | effect on the signal of waldiomycin ([2]; compound 30 and 100 µM, in words) | signal of waldiomycin compared to only waldiomycin with WalK ([2]; compound at 100 µM, waldiomycin 5 µM, WalK 1 µM) |
| --- | --- | --- | --- | --- | --- | --- |
| O=C1C(Cl)=C(Nc2ccc(Cl)c(O)c2)C(=O)c2c(O)ccc(O)c21 [2h, 2-chloro-3-((4-chloro-3-hydroxyphenyl)amino)-5,8-dihydroxynaphthalene-1,4-dione] | 47.2 µM | about twofold | not competitive; also recorded: enhanced the binding of waldiomycin to WalK | − |  |  |
| CC(C)(C)OC(=O)Nc1cccc(NC2=C(Cl)C(=O)c3c(O)ccc(O)c3C2=O)c1 [2l, tert-butyl (3-((3-chloro-5,8-dihydroxy-1,4-dioxo-1,4-dihydronaphthalen-2-yl)amino)phenyl)carbamate] | 26.8 µM | about twofold | not competitive; also recorded: enhanced the binding of waldiomycin to WalK | − |  |  |
| Cc1noc2c1C(=O)c1c(O)ccc(O)c1C2=O [3b, 5,8-dihydroxy-3-methylnaphtho[2,3-d]isoxazole-4,9-dione] | 77.3 µM |  | competitive; also recorded: competitively interacted with waldiomycin | + | reduced the signal of waldiomycin in a dose-dependent manner | about 10% |
